Entries after “also recorded” stand apart in the source; their conditions may differ. Like-named read-outs stand apart in the source and are kept apart here.
Legend:
[1] = tested on: Caco-2 cells; assay: MTT cytotoxicity against Caco-2 cells; assay type: cell-based, human; settings: 24 h incubation, mean ± SD of three analyses, read-out: IC50 Conc. against Caco-2 cells
Procedure: (§1) The American Type Culture Collection (ATCC) provided WI-38 (ATCC CCL-75), a cell line from the healthy human embryonic lung, and Caco-2 (ATCC HTB-37), a cell line from colon cancer. These cells were developed in DMEM medium that was supplemented with antibiotics and fetal bovine serum in a 5% CO2 humidified incubator at 37 °C.
The toxicity of the tested compounds (3a–3k) toward Caco-2 cancer cells was examined and compared to 5-Fluorouracil (5-FU, the standard reference drug) utilizing MTT assay, as previously explained. In brief, 1 × 10^5 Caco-2 cells/mL were distributed into each well of a 96-well plate and kept overnight at 37 °C in their growth mixture. The cells were then subjected to the various doses of the studied compounds (50–1000 µM). Following that, the cells were exposed to MTT solution, which induced formazan formation from the MTT, a byproduct of the metabolism of MTT that is proportionate to the quantity of intact cells. To further dissolve the formazan crystal, dimethyl sulfoxide was applied to the cells. Caco-2 survival was obtained through measuring the value of the optical density at 570 nm implementing a microplate reader (Bio-Rad, Hercules, CA, USA), and the effect of the substances on cell proliferation was expressed using the aforementioned formula (2):Cell viability % = (Abs. of tested sample − Abs. of blank)/(Abs. of control − Abs. of blank) × 100(2)
The half-suppression (IC50) dose of the test drugs over a 24 h incubation period was identified through examination of the concentration–response curve. Each value was evaluated three times, and the average of the three ratings was employed to obtain the results.

[2] = tested on: Caspase-3; assay: qRT-PCR of Caspase-3 mRNA in Caco-2 cells; assay type: cell-based, human; settings: Caco-2, IC50 concentration
Text: (§2) The relative amounts of messenger RNA (mRNA) for apoptosis-related genes (BCL-2, Caspase-3, and BAX) have been monitored in order to look into potential processes relating to the effect of the tested 3e compound on apoptosis inside the treated Caco-2 cancer cells. In a nutshell, Thermo Fisher Scientific’s RNA purification kit (Waltham, MA, USA) (catalog #K0731) was used to isolate total RNA from both control- and Caco-2-treated cells, as per the manufacturer’s instructions. The ratio of A260/A280 was then quantified using a spectrophotometer to figure out the amounts of extracted RNA in each sample. Then, following the manufacturer’s instructions, first-strand cDNA was produced from the collected RNA samples using a kit made by Thermo Fisher Scientific called RevertAid (catalog #K1621). Real-time PCR amplification was performed on an Applied Biosystems StepOnePlusTM instrument using the Thermo Fisher Scientific Maxima SYBR Green qPCR kit (catalog #K0221) and gene-specific primers (Invitrogen, Waltham, MA, USA), as detailed in Table 3. Then, the relative quantification (RQ) of the utilized genes was calculated using a comparative threshold cycle approach, compared against their varied expression in the untreated samples, and normalized to B-actin as a housekeeping gene. […]

[3] = tested on: cleaved Caspase-3; assay: ELISA of cleaved Caspase-3 protein in Caco-2 cells; assay type: cell-based, human; settings: Caco-2, IC50 dose
Procedure: (§3) Protein expression levels of the under investigation genes were evaluated in Caco-2 cells treated with compound 3e using an ELISA assay. Three different ELISA kits were used: one for BAX (ab199080), one for cleaved Caspase-3 (ab220655), and one for BCL-2 (ab272102), which were supplied via Abcam (Cambridge, UK). All of these kits are based on a single, highly sensitive sandwich enzyme assay that lasts 90 min and uses a precoated ELISA plate and an anti-tag antibody to capture antibodies that have been labeled with an affinity tag. The tested compound 3e-treated cultured Caco-2 cells were centrifuged, the resulting pellets were discarded, and the residual supernatant was mixed with an antibody cocktail solution in a 96-well ELISA plate. The plate was then incubated for 1 h at room temperature. After thoroughly rinsing the plate in wash buffer (1×), in each well, a ten min incubation period of tetramethylbenzidine substrate solution was conducted. Following that, the plate was stored in a dim area. The intensity at 450 nm was then measured with a microplate reader immediately after a stop solution was added.

[4] = tested on: Caco-2 cells; assay: Comet assay (DNA fragmentation); assay type: cell-based, human
Text: The production of genotoxicity in Caco-2 cells treated with compound 3e was investigated using a comet test. Caco-2 cells were pretreated with a caspase-3 inhibitor (Z-DEVD-FMK) to ascertain whether or not caspase-3 activity contributed to the DNA damage induced by compound 3e. Using the comet test, in order to assess the influence of compound 3e upon DNA damage, Caco-2 cells were subjected to either compound 3e separately (IC50 concentration) or compound 3e (IC50 concentration) following prior treatment with Z-DEVD-FMK ([…]) for 1 h. Broken strands of broken DNA will detach from intact strands of cellular DNA during fragmentation, producing a structure similar to a comet tail visible under a fluorescence microscope (Carl Zeiss, Axiostar Plus 1169–149, Jena, Germany). For each slide, 100 photos of comets of varying shapes were captured using a computerized image analysis system. Afterwards, the photos were analyzed using the TriTek Comet ScoreTM program (TriTek Corp., Sumerduck, VA, USA) to gather information about the comet’s properties. The tail DNA and tail moment, two often-utilized markers, were built to be used in discovering the data. The Olive tail moment (OTM), which is also called a tail moment parameter, is generally accepted as the gold standard for evaluating DNA damage. Its value, which was calculated using Equation (3), is proportional to the tail’s DNA mobility and DNA abundance. OTM = quantity of tail moment × quantity of tail DNA divided by 100(3)

[5] = tested on: BCL-2; assay: qRT-PCR of BCL-2 mRNA in Caco-2 cells; assay type: cell-based, human; settings: Caco-2, IC50 concentration
Text: as §2

[6] = tested on: BCL-2; assay: ELISA of BCL-2 protein in Caco-2 cells; assay type: cell-based, human; settings: Caco-2, IC50 dose
Procedure: as §3

[7] = DPPH free-radical scavenging (antioxidant) assay; settings: 40–200 µM in methanol, versus ascorbic acid
Procedure: The potential of several compounds to scavenge DPPH free radicals was quantified employing a colorimetric approach. Various doses of all tested compounds (3a–3k) were prepared in methanol (40–200 µM), and standard solutions of ascorbic acid (40–200 µM) were made by dissolving the compound in methanol. After determining the optimal concentration of each compound and ascorbic acid, the solutions were supplemented with DPPH. The radical scavenging capacity (RSC) was calculated by measuring the absorbance at 517 nm and using the Formula (1):% DPPH RSC = (Abs. of control − Abs. of sample or standard)/Abs. of control × 100(1)

[8] = tested on: BAX; assay: qRT-PCR of BAX mRNA in Caco-2 cells; assay type: cell-based, human; settings: Caco-2, IC50 concentration
Text: as §2

[9] = tested on: wi38 cells; assay: MTT test on healthy WI38 cells; assay type: cell-based, human; settings: 24 h; for effect on wi38 normal cell viability: 50 to 1000 µM
Procedure: as §1
The effects of the investigated compounds on the survival of healthy cells, WI38, have been evaluated and compared to 5-Fluorouracil (5-FU, the standard reference drug) utilizing the MTT test at concentrations ranging from 50 to 1000 µM to further determine whether the substances were secure for usage on living tissues. Three distinct evaluations of each value were carried out to calculate the final findings.

[10] = tested on: Caco-2 cells; assay: Annexin V/PI flow cytometry apoptosis assay; assay type: cell-based, human; settings: Caco-2, IC50 dose, 24 h
Procedure: The annexin V/PI assay focuses on the translocation of phosphatidylserine (PS) from the inner plasma membrane toward the cell surface within apoptotic cells. Accordingly, the Annexin V-FITC detection kit I (BD Biosciences) was implemented to figure out the numbers of apoptotic and necrotic cells in both the compound 3e-treated and untreated Caco-2 cells for 24 h.. In brief, Caco-2 cells were collected, expanded in 6-well culture dishes with 1 × 10^6 cells per well, and then allowed to incubate for an overnight period to promote cell adhesion and proliferation. After only 24 h in the presence of the 3e compound, the cells were trypsinized, centrifuged, rinsed with PBS, and then mixed with a solution containing Annexin V binding buffer (1×) before being exposed to the Annexin V-FITC and propidium iodide stains. At last, a flow cytometer (BD FACSCalibur™, Biosciences, San Jose, CA, USA) was implemented to find the amount of early as well as late apoptotic cells, and the outcomes were presented graphically.

[11] = tested on: Caco-2 cells; assay: LDH release ELISA in treated Caco-2 cells; assay type: cell-based, human; settings: compound-treated Caco-2 cells, p < 0.001
Procedure: The amount of lactate dehydrogenase enzyme (LDH) secreted by compound 3e-treated Caco-2 cells was measured using the double-antibody-sandwich ELISA method (Sun-Red, Cat. N. 201-28-0094) to confirm the cytotoxic impact of the tested chemical on Caco-2 cells. Specifically, 40 µL of the supernatant obtained from centrifuging the Caco-2 cells that had been treated with the 3e compound was added to the test wells. Next, LDH-antibody (10 µL) and Streptavidin-HRP (50 µL) were transferred to every well. After 60 min of incubation at 37 °C, the 96-well plate was shaken gently. […] The 96-well plate was then gently shaken and left to incubate for 60 min at 37 °C. The plates were then washed, and each test well received 50 µL of chromogen solution A and 50 µL of chromogen solution B. The plates were then incubated at 37 °C, and darkened for 10 min. Stop solution (50 µL) was then applied to each well. Once testing was complete, 450 nm was used to determine the plate’s optical density (OD). The amount of released LDH was calculated using the standard curve that had been previously established.

[12] = tested on: BAX; assay: ELISA of BAX protein in Caco-2 cells; assay type: cell-based, human; settings: Caco-2, IC50 dose
Procedure: as §3

[13] = Caco-2, IC50 concentration after pretreatment with Caspase-3 inhibitor Z-DEVD-FMK for 1 h
[14] = Caco-2, compound alone at IC50 concentration, without Caspase-3 inhibitor

Compound | IC50 ([1]; Homo sapiens, Caco-2, 24 h) | melting point | also measured
O=C(/C=C/C=C/c1ccccc1)c1ccccn1 [3a, (2E,4E)-5-phenyl-1-(pyridin-2-yl)penta-2,4-dien-1-one] | 725.6 ± 3.69 µM | 182 °C | –
O=C(/C=C/C=C/c1ccccc1)c1cccnc1 [3b, (2E,4E)-5-phenyl-1-(pyridin-3-yl)penta-2,4-dien-1-one] | > 1000 µM | 104 °C | –
O=C(/C=C/C=C/c1ccccc1)c1cccs1 [3c, (2E,4E)-5-phenyl-1-(thiophen-2-yl)penta-2,4-dien-1-one] | > 1000 µM | 102 °C | –
O=C(/C=C/C=C/c1ccccc1)c1ccco1 [3d, (2E,4E)-1-(furan-2-yl)-5-phenylpenta-2,4-dien-1-one] | > 1000 µM | – | –
O=C(/C=C/C=C/c1ccccc1)c1ccc[nH]1 [3e, (2E,4E)-5-phenyl-1-(1H-pyrrol-2-yl)penta-2,4-dien-1-one] | 32.1 ± 3.92 µM | 170 °C | Caspase-3 mRNA expression level versus untreated cells [2]: increased considerably; cleaved Caspase-3 protein level versus untreated cells [3]: increased levels; % DNA in Tail [4, 13]: 4.55± 1.73; Olive Tail Moment (OTM) [4, 13]: 0.69± 0.16; Tail Moment [4, 13]: 0.44± 0.08; % DNA in Tail [4, 14]: 8.18 ± 0.56; Olive Tail Moment (OTM) [4, 14]: 1.92 ± 0.04; Tail Moment [4, 14]: 1.19 ± 0.03; BCL-2 mRNA expression level versus untreated cells [5]: substantial reduction; BCL-2 protein level versus untreated cells [6]: decreased; antioxidant activity (DPPH scavenging, IC50) compared with the other compounds [7]: highest effective antioxidant activity; BAX mRNA expression level versus untreated cells [8]: increased considerably; IC50 [1]: 32.2 ± 3.92 µM; effect on wi38 normal cell viability [9]: higher % of wi38 cell viability; also recorded: no detrimental effects; percentage of apoptotic cells (early and late) versus untreated [10]: much greater percentage of apoptotic cells; LDH levels versus untreated Caco-2 cells [11]: considerably increased; BAX protein level versus untreated cells [12]: increased levels
COc1ccccc1/C=C/C=C/C(=O)c1ccccn1 [3f, (2E,4E)-5-(2-methoxyphenyl)-1-(pyridin-2-yl)penta-2,4-dien-1-one] | 173 ± 3.84 µM | 195 °C | –
COc1ccccc1/C=C/C=C/C(=O)c1ccc[nH]1 [3g, (2E,4E)-5-(2-methoxyphenyl)-1-(1H-pyrrol-2-yl)penta-2,4-dien-1-one] | 336 ± 4.96 µM | 177 °C | –
O=C(/C=C/C=C/c1ccc([N+](=O)[O-])cc1)c1ccccn1 [3h, (2E,4E)-5-(4-nitrophenyl)-1-(pyridin-2-yl)penta-2,4-dien-1-one] | 548.6 ± 3.76 µM | 205 °C | –
O=C(/C=C/C=C/c1ccc([N+](=O)[O-])cc1)c1cccnc1 [3i, (2E,4E)-5-(4-nitrophenyl)-1-(pyridin-3-yl)penta-2,4-dien-1-one] | 207 ± 2.31 µM | – | –
O=C(/C=C/C=C/c1ccc([N+](=O)[O-])cc1)c1cccs1 [3j, (2E,4E)-5-(4-nitrophenyl)-1-(thiophen-2-yl)penta-2,4-dien-1-one] | 149 ± 2.55 µM | 218 °C | –
O=C(/C=C/C=C/c1ccc([N+](=O)[O-])cc1)c1ccco1 [3k, (2E,4E)-1-(furan-2-yl)-5-(4-nitrophenyl)penta-2,4-dien-1-one] | 130 ± 3.28 µM | 189 °C | –
O=c1[nH]cc(F)c(=O)[nH]1 [5-FU, 5-Fluorouracil, reference compound] | 33.1 ± 1.45 µM | – | effect on wi38 normal cell viability [9]: decrease in wi38 cell viability with increasing its concentration; IC50 ([9]; Homo sapiens, WI-38, 50–1000 µM, read-out: IC50 against normal wi38 cell): 22.8 ± 2.46 µM

From paper PMC10886690, “Synthesis, Characterization, Antioxidant, and Anticancer Activity against Colon Cancer Cells of Some Cinnamaldehyde-Based Chalcone Derivatives” (Biomolecules, 2024)
